Results taken from the NIST ThermoML archive (doi:10.1021/je301164d).

Conditions: Fluid (supercritical or subcritical phases)

CC(F)(F)CC(F)(F)F [1,1,1,3,3-pentafluorobutane]
Conditions	speed of sound [m/s]
250 K, 1105.2 kPa	921.65
250 K, 2105.8 kPa	926.73
250 K, 3106.3 kPa	931.74
250 K, 4106.9 kPa	936.7
250 K, 5107.4 kPa	941.59
250 K, 6108.3 kPa	946.43
250 K, 7108.9 kPa	951.22
250 K, 8108.1 kPa	955.95
250 K, 9108.8 kPa	960.64
250 K, 10110 kPa	965.28
250 K, 12611 kPa	976.67
250 K, 15113 kPa	987.78
250 K, 17614 kPa	998.62
250 K, 20116 kPa	1009.2
250 K, 25120 kPa	1029.8
250 K, 30123 kPa	1049.5
250 K, 35127 kPa	1068.4
250 K, 40130 kPa	1086.7
250 K, 45133 kPa	1104.4
250 K, 50137 kPa	1121.5
260 K, 1104.3 kPa	881.57
260 K, 2104.8 kPa	886.96
260 K, 3105.3 kPa	892.27
260 K, 4105.9 kPa	897.52
260 K, 5106.3 kPa	902.7
260 K, 6107.9 kPa	907.82
260 K, 7109.2 kPa	912.89
260 K, 8109.9 kPa	917.88
260 K, 9110.7 kPa	922.82
260 K, 10112 kPa	927.71
260 K, 12613 kPa	939.68
260 K, 15115 kPa	951.34
260 K, 17617 kPa	962.7
260 K, 20118 kPa	973.79
260 K, 25122 kPa	995.21
260 K, 30126 kPa	1015.7
260 K, 35129 kPa	1035.4
260 K, 40133 kPa	1054.3
260 K, 45136 kPa	1072.6
260 K, 50140 kPa	1090.3
260 K, 60146 kPa	1124.1
260 K, 70153 kPa	1155.9
260 K, 80160 kPa	1186.1
260 K, 90167 kPa	1214.9
260 K, 100174 kPa	1242.4
280 K, 1104.4 kPa	803.31
280 K, 2104.9 kPa	809.41
280 K, 3105.4 kPa	815.42
280 K, 4106 kPa	821.34
280 K, 5106.6 kPa	827.16
280 K, 6107.8 kPa	832.89
280 K, 7108.5 kPa	838.55
280 K, 8109.3 kPa	844.12
280 K, 9110.2 kPa	849.62
280 K, 10111 kPa	855.04
280 K, 12613 kPa	868.29
280 K, 15114 kPa	881.13
280 K, 17616 kPa	893.6
280 K, 20118 kPa	905.71
280 K, 25121 kPa	929
280 K, 30124 kPa	951.17
280 K, 35128 kPa	972.34
280 K, 40131 kPa	992.62
280 K, 45135 kPa	1012.1
280 K, 50138 kPa	1030.9
280 K, 60145 kPa	1066.6
280 K, 70152 kPa	1100.2
280 K, 80159 kPa	1131.9
280 K, 90166 kPa	1162
280 K, 100172 kPa	1190.6
300 K, 1104.5 kPa	727.1
300 K, 2105 kPa	734.06
300 K, 3105.5 kPa	740.9
300 K, 4106 kPa	747.61
300 K, 5107 kPa	754.19
300 K, 6107.6 kPa	760.65
300 K, 7107.1 kPa	766.96
300 K, 8107.8 kPa	773.21
300 K, 9108.4 kPa	779.34
300 K, 10110 kPa	785.37
300 K, 12612 kPa	800.06
300 K, 15114 kPa	814.23
300 K, 17616 kPa	827.91
300 K, 20117 kPa	841.15
300 K, 25121 kPa	866.44
300 K, 30125 kPa	890.34
300 K, 35129 kPa	913.06
300 K, 40132 kPa	934.74
300 K, 45136 kPa	955.48
300 K, 50139 kPa	975.38
300 K, 60146 kPa	1013.1
300 K, 70153 kPa	1048.3
300 K, 80160 kPa	1081.4
300 K, 90167 kPa	1112.7
300 K, 100174 kPa	1142.5
319.99 K, 2104.9 kPa	660.37
319.99 K, 3105.5 kPa	668.24
319.99 K, 4106.3 kPa	675.92
319.99 K, 5107.7 kPa	683.41
319.99 K, 6108.6 kPa	690.74
319.99 K, 7109.3 kPa	697.91
319.99 K, 8110 kPa	704.93
320 K, 9111.2 kPa	711.77
320 K, 10112 kPa	718.52
320 K, 12614 kPa	734.86
320 K, 15115 kPa	750.5
320 K, 17617 kPa	765.53
320 K, 20119 kPa	779.98
320 K, 25123 kPa	807.44
320 K, 30126 kPa	833.19
320 K, 35130 kPa	857.51
320 K, 40134 kPa	880.59
320 K, 45137 kPa	902.59
320 K, 50141 kPa	923.63
